Test results reported in patent US20260216328A1, “DISRUPTABLE LINKER COMPOSITIONS, SWITCHABLE BISPECIFIC T CELL NANOENGAGER (SWITCH-BITE) COMPOSITIONS COMPRISING THE SAME, AND METHODS OF USE THEREOF” (The Trustees of the University of Pennsylvania, priority 2023, published 2026).

Columns and labels:
E0771-HER2 tumour = assay: AMD-mediated in vivo disassembly of SiTE-Cy7 (Cy7 signal in tumour); parameters: species or system mouse; conditions: 18 h post-SiTE-Cy7, read 6 h later
Experimental: FIGS. 19A-19C: SiTE was labeled with Cy7 dye (Cy7 was labeled on CD3 Fab) and was i.v. injected to tumour-bearing mice at 0 h. Then. PBS. […] 6 h later, mice were euthanized and the Cy7 signal in different organs and tumour was measured using IVIS. […] FIG. 19E: quantification of the fluorescence in tumour tissues in a-c. Data was shown as mean±SD (n=3), statistical differences were analyzed using two-tailed unpaired Student's t-test. […] SiTE-Cy7 was i.v. infused into tumour bearing mice at 0 h. […] After 24 h, mice were euthanized and the Cy7 signal distribution in major organs and mice body was observed. Cy7 signal was detected in the spleen, kidney and bladder.
Next, determination as to whether AMD can be used to break down the SiTE in vivo was sought. Cy7 was modified to the CD3 Fab and the Fab assembled with HER2 Fab to formulate SiTE-Cy7. SiTE-Cy7 was i.v. injected to E0771-HER2 tumour-bearing mice at 0 h. […] Mice were euthanized 6 h later and the Cy7 signal in different organs and tumour was measured using an in vivo imaging system (IVIS). […] Most supramolecular chemistry-based strategies for controllable chemotherapeutic release have only been tested in in vitro studies, and only a few in vivo controllable drug release strategies have been reported in this space. […]

[1] = Half-life, distribution and clearance of AMD in mice; assay type: in vivo; conditions: mouse; for half-life: blood, intravenous
[2] = test system: Raji-Luc-GFP tumour cells; conditions: AMD treatment group after SiTE
Experimental: FIG. 42A: NSG-SGM3 mice were treated with Busulfan at day −50 to remove mouse bone marrow. At day −49, 10^5 human CD34^+ fetal liver cells were i.v. injected to let the mouse develop a human immune system. 10^6 Raji-Luc-GFP tumour cells were i.v. injected at day −14. At days 1, 3, and 5, PBS or SiTE was i.v. injected (in the PBS group, only PBS was injected to tumour-bearing mice). […] FIGS. 42B-42E: mouse body weight, temperature, IL-6 levels, and mouse survival curves, respectively. n=10 mice. The red stars in FIG. 42B indicate that mice were euthanized. FIG. 42F: measurements of IL-1 in mouse blood at different time points. n=10 mice. […] Brain H&E staining (FIG. 42I) and human CD68 immunohistochemistry (FIG. 42J) images of mice at day 35. The data in FIGS. 42B-42F were plotted as mean z s.d. (n=10) from three independent experiments.
It was also evaluated if the SiTE can help control neurotoxicity. In the clinic, neurotoxicity is usually delayed and occurs several […] after CRS onset. Tumour-bearing mice were treated with SiTE at days 1, 3 and 5 (FIG. 42A). […] Rather than use a preventative strategy for treating CRS (FIGS. 40A-40M), here Tocilizumab was used to treat CRS when symptoms presented, so that it can be compared directly with the SiTE strategy. […] Studies have shown that IL-1 is the major cause of neurotoxicity.

[3] = AMD dispersed in 5% polyoxyethylene castor oil

NC12CC3CC(CC(C3)C1)C2 [AMD, adamantan-1-amine]
Cy7 signal decrease compared to PBS treatment (E0771-HER2 tumour; [3]): over 78%
decrease in Cy7 signal in the tumour (E0771-HER2 tumour; AMD dispersed in PBS): ~46%
half-life [1, 3]: ~24 h
half-life ([1]; AMD dispersed in PBS): ~9 h
clearance ([1]; in vivo): cleared from the urine
animal survival [2]: prolonged animal survival
